The values below come from ChEMBL document CHEMBL1671717, “In vitro potentiation of carbapenems with ME1071, a novel metallo-beta-lactamase inhibitor, against metallo-beta-lactamase- producing Pseudomonas aeruginosa clinical isolates” (Antimicrob Agents Chemother, 2010).

The target of one assay is Beta-lactamase (Pseudomonas aeruginosa, UniProt Q79MP6).
Another assay addresses Beta-lactamase VIM-2 (Pseudomonas aeruginosa, UniProt Q9K2N0).

Chain of Beta-lactamase (Q79MP6 whole entry): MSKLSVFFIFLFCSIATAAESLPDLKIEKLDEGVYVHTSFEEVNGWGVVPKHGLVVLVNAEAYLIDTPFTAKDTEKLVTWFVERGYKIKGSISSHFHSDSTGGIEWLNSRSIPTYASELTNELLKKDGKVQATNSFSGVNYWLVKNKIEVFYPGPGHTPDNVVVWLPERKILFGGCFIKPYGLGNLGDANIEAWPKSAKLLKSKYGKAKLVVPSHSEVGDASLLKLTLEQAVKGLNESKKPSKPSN
Description for Beta-lactamase VIM-2: Inhibition of Pseudomonas aeruginosa beta-lactamase VIM-2 assessed as hydrolysis of nitrocefin by UV spectrophotometric analysis

In general, Ki refers to the dissociation constant of the complex between target and ligand, obtained from inhibition or displacement. Regarding `C[C@@H](O)[C@H]1C(=O)N2C(C(=O)O)=C(Sc3cc4ccccc4s3)[C@H](C)[C@H]12`, the Ki at Beta-lactamase is 180 nM. At Beta-lactamase VIM-2, `CC/C(C(=O)O)=C(\CC)C(=O)O` displayed an inhibition constant (Ki) of 120000 nM.

Regarding `COC1OC(C)=Cc2oc3cc(O)c(O)c(C(=O)O)c3c(=O)c21` (stereo not given), on Beta-lactamase, affinity was put at a Ki of 180 nM.

`O=C(O)CCS` [MERCAPTOPROPIONIC ACID] had a Ki at Beta-lactamase of 180 nM. This lies in the sub-micromolar range. The compound `O=C(O)CS` [THIOGLYCOLIC ACID] gave a Ki on Beta-lactamase of 180 nM.
